In US4661596A, “Quinolinyl (or pyridinyl) methoxy substituted naphthalene compounds as antiallergic agents” (American Home Products Corporation, priority 1985, dated 1987):

Key:
[1] = tested on: synthesis of 5-HETE by rat glycogen-elicited polymorphonuclear leukocytes; assay: inhibition of 5-HETE synthesis by rat glycogen-elicited polymorphonuclear leukocytes; type: cell-based, rat (female Wistar); settings: Leukocyte; 50 μM unless otherwise stated; rat PMN, A23187 (10 μM) and [14C] arachidonic acid, 10 minutes preincubation
Procedure: This is especially true with respect to 5,12-diHETE, which is also denoted as LTB4 [see Ford-Hitchinson, J. Roy. Soc. Med., 74, 831 (1981)]. The assay of this Example measures the ability of the compounds of the invention to inhibit the synthesis of 5-HETE by rat glycogen-elicited polymorphonuclear leukocytes.
The array is carried out as follows:
Peritoneal PMN are obtained from female Wistar rats (150-250 g) that received an i.p. injection of 6% glycogen (10 mL). After 24 hours, rats are killed by CO2 asphyxiation and peritoneal cells are harvested by peritoneal lavage using Ca^++ and Mg^++ free Hanks' balanced salt solution (HBSS). The peritoneal exudate is centrifuged at 400 g for 10 minutes. After centrifugation, the lavaged fluid is removed and the cell pellet is resuspended in HBSS containing Ca^++ and Mg^++ and 10 mM L-cysteine at a concentration of 2×10^7 cells/mL. To 1 mL portions of cell suspension, test drugs or vehicle are added and incubated at 37° C. for 10 minutes. Following this preincubation, the calcium ionophore (10 μM), A23187, is added together with 0.5 μCi [^14 C] arachidonic acid and further incubated for 10 minutes. The reaction is stopped by the addition of ice cold water (3 mL) and acidifying to pH 3.5. Lipoxygenase products are then extracted twice into diethyl ether. The pooled ether extracts are evaporated to dryness under nitrogen and the residue is redissolved in a small volume of methanol and spotted on aluminum backed pre-coated thin layer chromatographic plates. The samples are then co-chromatographed with authentic reference 5-HETE in the solvent system-hexane:ether:acetic acid (50:50:3). After chromatography, the areas associated with 5-HETE standard are identified by autoradiography, cut out and quantitated by liquid scintillation.
Results are expressed as % inhibition of [^14 C]5-HETE synthesis. [formula]
Testing compounds of the invention in this assay the following results are obtained, where the concentration of the compounds tested is 50 μM unless otherwise stated.

[2] = tested on: LTD4 induced bronchoconstriction; assay: in vivo inhibition of LTD4-induced bronchospasm in guinea pigs; set-up: species or system guinea pig (male Hartley); settings: 50 mg/kg intraduodenal; 10 minutes before induction of bronchospasm by LTD4; average of 6 experiments

SMILES | inhibition at 50 µM [1] [%] | % Inhibition (Statistical Average) Overflow Volume at 5 min. [2] [%]
Oc1ccc2ccc(OCc3ccc4ccccc4n3)cc2c1 [Example 2, 7-(2-quinolinylmethoxy)-2-naphthalenol] | > 50 | 
Oc1ccc2ccc(OCc3ccccn3)cc2c1 [Example 5, 7-(2-pyridinylmethoxy)-2-naphthalenol] | > 50 | 
O=S(=O)(Nc1ccc2ccc(OCc3ccc4ccccc4n3)cc2c1)C(F)(F)F [Example 10, N-[7-(2-quinolinylmethoxy)-2-naphthalenyl]trifluoromethane sulfonamide] |  | 99.0
COc1ccc2ccc(OCc3ccc4ccccc4n3)cc2c1 [Example 3, 2-[[(7-methoxy-2-naphthalenyl)oxy]methyl]quinoline] | > 50 | 
OC1CCCc2ccc(OCc3ccc4ccccc4n3)cc21 (stereo not shown) [Example 1, 1,2,3,4-Tetrahydro-7-(2-quinolinylmethoxy)-1-naphthalenol] | > 50 | 56.1
Nc1cccc2ccc(OCc3ccc4ccccc4n3)cc12 [Example 6, 7-(2-quinolinylmethoxy)-1-naphthalenamine] | > 50 | 
Oc1ccc2ccc(OCc3nc4ccccc4s3)cc2c1 [Example 4, 7-(2-benzothiazolylmethoxy)-2-naphthalenol] | > 50 | 
C=C1CCCc2ccc(OCc3ccc4ccccc4n3)cc21 [Example 9, 2-[[(5,6,7,8-tetrahydro-8-methylene-2-naphthalenyl)oxy]methyl]quinoline] | > 50 | 
CCS(=O)(=O)Nc1ccc2ccc(OCc3ccc4ccccc4n3)cc2c1 [Example 8, N-[7-(2-quinolinylmethoxy)-2-naphthalenyl]ethane sulfonamide] | > 50 | 90.6
Nc1ccc2ccc(OCc3ccc4ccccc4n3)cc2c1 [Example 7, 7-(2-quinolinylmethoxy)-2-naphthalenamine] | > 50 | 88.7
